The text below walks through data of patent US20130165520A1, “Hybrid Molecule Having Mixed Retinoic Acid Receptor Agonism and Histone Deacetylase Inhibitory Properties” (priority 2010, published 2013).

For one test, the system named is DU-145. Conditions: DU-145 (Prostate); 48 h.
The next test relates to OVCAR-5. Briefly: cells. Conditions: Homo sapiens, OVCAR-5, 48 h.
The test system of the next test is OVCAR-3. Conditions: 48 h.
Another test relates to MDA-MB-231/ATCC. The following applies: MDA-MB-231/ATCC (Breast); 48 h.
A further test concerns MDA-MB-435. Briefly: cells. The following applies: Homo sapiens, MDA-MB-435, 48 h.
The test system of the next test is MCF7. Briefly: cells. Conditions: Homo sapiens, MCF7, 48 h.
The next test relates to T-47D. Briefly: cells. Conditions: Homo sapiens, T47D, 48 h.
A further test has as its target purified human HDAC3 (Homo sapiens, UniProt O15379). Briefly: Standard fluorescence HDAC assay. The test is classed as biochemical. The following applies: purified human enzyme, read-out: IC50 against HDAC3.
In another test the test system is SR. The following applies: SR (Leukemia); 48 h.
The subject of a further test is MOLT-4. Briefly: cells. The following applies: Homo sapiens, MOLT-4, 48 h.

Usually TGI stands for the concentration at which net growth stops. Lower therefore signals more potent growth arrest. The GI50 is the concentration at which growth is held to half of that of the control. The IC50 is the midpoint of a concentration-inhibition curve.

Structures are written as SMILES.

Chain of purified human HDAC3 (O15379 whole entry): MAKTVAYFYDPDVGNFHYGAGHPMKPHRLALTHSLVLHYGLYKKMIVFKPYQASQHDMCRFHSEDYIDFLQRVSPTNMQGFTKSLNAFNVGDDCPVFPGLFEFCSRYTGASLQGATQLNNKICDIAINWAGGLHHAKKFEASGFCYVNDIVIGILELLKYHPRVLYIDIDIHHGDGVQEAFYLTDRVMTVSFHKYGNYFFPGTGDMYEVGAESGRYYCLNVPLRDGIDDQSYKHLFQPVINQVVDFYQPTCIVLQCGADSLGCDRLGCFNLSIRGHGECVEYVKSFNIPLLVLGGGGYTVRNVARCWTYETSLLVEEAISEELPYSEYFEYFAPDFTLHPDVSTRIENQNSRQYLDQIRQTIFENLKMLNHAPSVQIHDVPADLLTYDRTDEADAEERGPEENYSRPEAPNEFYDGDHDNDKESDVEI
Chain of purified human HDAC3 (Q9Y618 395-489 partner limits assumed): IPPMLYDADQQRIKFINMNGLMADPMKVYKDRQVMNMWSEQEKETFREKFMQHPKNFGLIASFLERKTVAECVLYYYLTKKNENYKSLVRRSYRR

Regarding `CC1(C)CCC(C)(C)c2cc(-c3ccc4cc(C(=O)NO)ccc4c3)ccc21` [hybrid 3], the concentration for total growth inhibition (TGI) in the test with DU-145 turned out to be 1.9 µM; with OVCAR-3 it was 1.88 µM; in the test on MDA-MB-231/ATCC, 3.59 µM; with SR, 1.2 µM. Further, the 50% growth inhibitory concentration (GI50) in the test with OVCAR-5 is 4.12 µM; with MDA-MB-435, 0.879 µM; in the test on MCF7 it was 0.47 µM; with T-47D, 1.27 µM; with MOLT-4 it was 0.371 µM. The CC50 came to 46.1 µM in the test with OVCAR-5 (read-out: LC50); 6.8 µM in the test on MDA-MB-435 (read-out: LC50); 4.66 µM in the test on MCF7 (read-out: LC50); 28 µM in the test on T-47D (read-out: LC50); 7.8 µM in the test on MOLT-4 (read-out: LC50). Moreover, the IC50 at purified human HDAC3 amounted to 5 µM.
